Source: US10137170B2, “Lipidated incretin receptor ligand human immunoglobulin Fc-region fusion polypeptides” (INDIANA UNIVERSITY RESEARCH AND TECHNOLOGY CORPORATION, priority 2013, dated 2018)
Starred links: 1 amine or outer side, 2 acyl side, 3 side chain; linkers in the order of their positions; H or OH if unused. Positions of bridges follow the written chain, without caps; N, C: chain ends. Non-standard residues stand in square brackets, D forms with d. Groups on a side chain read outwards from the residue. Chains are numbered I, II in the order given. *: point of attachment. γGlu = O=C(O)[C@H](CCC(=O)[*:2])N[*:1]; Desaminotyrosyl = O=C(CCc1ccc(O)cc1)*; Palmitoyl = CCCCCCCCCCCCCCCC(=O)*; X1 = O=C(C[*:1])[*:2]; Aib = CC(C)(N)C(=O)O

What was measured:
Assay type in all cases: cell-based
[1] = biological target: T1, GIP-R (Homo sapiens, UniProt P48546); assay: Cyclic AMP (cAMP) assay, cell-suspension format, stably expressed human GIP-receptor in CHO cells
T1 construct: host or cells: CHO-K1 (cAMP Hunter)
T1 sequence (P48546 22-466): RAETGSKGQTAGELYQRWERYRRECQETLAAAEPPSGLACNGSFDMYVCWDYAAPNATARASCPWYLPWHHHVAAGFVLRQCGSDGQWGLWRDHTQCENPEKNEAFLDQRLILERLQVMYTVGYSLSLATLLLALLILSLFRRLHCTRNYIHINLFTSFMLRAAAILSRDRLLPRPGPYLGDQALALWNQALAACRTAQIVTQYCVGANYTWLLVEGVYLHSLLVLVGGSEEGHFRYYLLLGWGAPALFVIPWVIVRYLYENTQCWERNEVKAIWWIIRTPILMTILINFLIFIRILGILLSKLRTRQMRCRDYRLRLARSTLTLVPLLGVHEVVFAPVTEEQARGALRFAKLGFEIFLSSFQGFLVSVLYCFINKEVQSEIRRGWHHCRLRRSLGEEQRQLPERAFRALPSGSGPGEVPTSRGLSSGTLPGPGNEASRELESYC
Experimental: (§1) On the day of the experiment, the medium was removed and the cell monolayer was washed with 10 mL phosphate buffered saline (PBS) per flask. […] The flask was gently tapped and the cell suspension was pooled. The cell suspension was centrifuged for 3 min. at 150×g, and supernatant was discarded. The cell pellet was resuspended in assay buffer and cell number determined. Cell concentration was adjusted to 2×10^5 cells/mL. A 25 μL cell suspension aliquot was transferred into each well of a 96-well plate using Multi-drop dispenser (5000 cells/well). A 25 μL aliquot of diluted compound was transferred to the cell plate and the cell suspension incubated for 30 min. at RT on a plate shaker (450 rpm). The reaction was stopped by addition of lysis buffer and cAMP generated was determined using the cAMP dynamic 2 kit from Cisbio following the manufacturer's instructions. The time resolved fluorescence signal was determined using an EnVision (PerkinElmer). Cyclic AMP production was calculated based on standard curve run in parallel for every experiment. Data were analyzed using Excel Fit software.

[2] = biological target: T2, human GLP-R (Homo sapiens, UniProt P43220); assay: Cyclic AMP (cAMP) assay, cell-suspension format, stably expressed human GLP-1-receptor in CHO cells
T2 construct: host or cells: CHO-K1 (cAMP Hunter)
Experimental: as §1

[3] = biological target: T3, human GCG-R (Homo sapiens, UniProt P47871); assay: Cyclic AMP (cAMP) assay, cell-suspension format, stably expressed human GCG-receptor in CHO cells; conditions: for EC50: Table 1, cAMP, CHO cells
T3 construct: host or cells: CHO-K1 (cAMP Hunter)
Experimental: as §1

[4] = Table 1, relative to GIP maximum
[5] = Table 1, relative to GLP-1 maximum
[6] = Table 1, relative to GCG maximum

T2 sequence (P43220 24-463): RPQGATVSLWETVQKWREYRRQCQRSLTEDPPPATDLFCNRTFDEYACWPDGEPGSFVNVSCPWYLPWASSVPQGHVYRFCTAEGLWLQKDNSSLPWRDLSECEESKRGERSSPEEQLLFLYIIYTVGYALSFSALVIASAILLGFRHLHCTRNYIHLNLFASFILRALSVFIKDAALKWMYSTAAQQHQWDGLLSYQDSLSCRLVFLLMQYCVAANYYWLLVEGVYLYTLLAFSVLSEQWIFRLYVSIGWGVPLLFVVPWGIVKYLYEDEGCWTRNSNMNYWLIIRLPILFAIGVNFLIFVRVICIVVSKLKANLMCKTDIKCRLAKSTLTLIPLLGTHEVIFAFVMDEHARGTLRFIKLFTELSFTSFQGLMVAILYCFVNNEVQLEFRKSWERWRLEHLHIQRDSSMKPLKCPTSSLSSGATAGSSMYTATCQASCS
T3 sequence (P47871 26-477): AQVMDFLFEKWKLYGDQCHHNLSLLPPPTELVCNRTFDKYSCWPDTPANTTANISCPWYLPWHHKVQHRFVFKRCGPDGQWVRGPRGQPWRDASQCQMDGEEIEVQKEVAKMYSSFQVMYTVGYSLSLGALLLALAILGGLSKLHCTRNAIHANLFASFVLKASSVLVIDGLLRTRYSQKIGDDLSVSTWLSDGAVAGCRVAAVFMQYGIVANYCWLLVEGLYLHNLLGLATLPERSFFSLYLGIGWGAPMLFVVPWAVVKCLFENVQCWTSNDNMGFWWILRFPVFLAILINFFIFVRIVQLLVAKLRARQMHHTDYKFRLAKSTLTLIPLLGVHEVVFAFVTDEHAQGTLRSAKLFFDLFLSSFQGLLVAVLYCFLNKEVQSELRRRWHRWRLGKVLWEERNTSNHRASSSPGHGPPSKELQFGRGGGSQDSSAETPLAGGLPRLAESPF

Substance | EC50 ([1]; Table 1, cAMP, CHO cells) [nM] | human GIP-R % max GIP [1, 4] [%] | EC50 ([2]; Table 1, cAMP, CHO cells) [nM] | human GLP-R % max GLP-1 [2, 5] [%] | EC50 [3] [nM] | human GCG-R % max GCG [3, 6] [%] | human GIP-R % max GIP ([1]; comparative table) [%] | human GLP-R % max GLP-1 ([2]; comparative table) [%] | human GCG-R % max GCG ([3]; comparative table) [%] | EC50 ([1]; comparative table) [nM] | EC50 ([2]; comparative table) [nM]
Dulaglutide [reference compound] | > 600 | 13.8 | 0.129 | 98.2 | > 600 | 1.6 |  |  |  |  | 
I: Ac-[dY]ALGTFTSDK([γGlu-Palmitoyl])SKYLDERAAQDFVQWLLEGGPSSGAPPPSC-NH2 / II: GGGLPETGGSGS-OH (linker I:40-II:N via X1) [compound 12] |  |  |  |  |  |  | 90 | 94 | 100 |  | 
I: Ac-[dY]AVGTFTSDK([γGlu-Palmitoyl])SKYLDERAAQDFVQWLLEGGPSSGAPPPSC-NH2 / II: GGGLPETGGSGS-OH (linker I:40-II:N via X1) [compound 13] |  |  |  |  |  |  | 91 | 73 | 99 |  | 
I: Desaminotyrosyl-AEGTFTSDK([γGlu-Palmitoyl])SKYLDERAAQDFVQWLLEGGPSSGAPPPSC-NH2 / II: GGGLPETGGSGS-OH (linker I:39-II:N via X1) [compound 11] |  |  |  |  |  |  | 83 | 67 | 28 |  | 
I: H-Y[Aib]EGTFTSDK([γGlu-γGlu-Palmitoyl])SIYLDKQAA[Aib]EFVNWLLAGGPSSGAPPPSC-NH2 / II: GGGLPETGGSGS-OH (linker I:40-II:N via X1) [compound 9] |  | 90.7 |  | 99.9 | 8.86 | 109.0 | 100 | 91 | 109 | 0.01 | 
I: H-Y[Aib]EGTFTSDK([γGlu-γGlu-Palmitoyl])SIYLDKQAA[Aib]EFVNWLLAGGPSSGAPPPSC-NH2 / II: LPETGGSGS-OH (linker I:40-II:N via X1) [compound 10] |  | 86.7 |  | 96.7 |  | 100.2 | 97 | 96 | 98 | 0.01 | 0.02
